Test results taken from patent US7598397B2, “Sulfonamide peri-substituted bicyclics for occlusive artery disease” (deCODE genetics ehf, priority 2004, dated 2009).
Where two headings read alike, the source gives them in different places.

What was measured:
prostanoid EP3 receptors = target: T1, prostanoid EP3 receptors (Homo sapiens, UniProt P43115); assay: binding on prostanoid EP3 receptors (method of Abramovitz et al.); details: read-out: Activity (EP3 receptor binding, IC50 class)
T1 sequence (P43115 1-390): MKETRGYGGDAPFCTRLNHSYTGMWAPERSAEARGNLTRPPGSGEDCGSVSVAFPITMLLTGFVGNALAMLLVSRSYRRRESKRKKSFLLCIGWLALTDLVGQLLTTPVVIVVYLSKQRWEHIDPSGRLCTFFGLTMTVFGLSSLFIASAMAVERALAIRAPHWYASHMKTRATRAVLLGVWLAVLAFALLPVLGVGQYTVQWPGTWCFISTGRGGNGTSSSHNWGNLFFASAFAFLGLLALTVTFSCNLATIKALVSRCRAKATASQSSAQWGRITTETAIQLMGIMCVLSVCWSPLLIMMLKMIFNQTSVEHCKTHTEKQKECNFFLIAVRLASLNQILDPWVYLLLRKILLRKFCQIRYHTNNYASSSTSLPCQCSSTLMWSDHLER
Description: The compounds of the invention were assayed for their binding on prostanoid EP3 receptors according to the method of Abramovitz et al. [Bioch. Biophys.

rat platelets = assay: platelet aggregation in vitro, rat platelets; type: cell-based; details: Serum % 20, read-out: IC50 (nM) for Test Compounds
Description: (§1) The compounds of the invention were assayed for their effects on platelet aggregation in vitro. In experiments with human platelets, whole blood was extracted from overnight-fasted human donors. Each experiment was performed with blood from single individual. In experiments with rodent platelets, whole blood was gathered from the heart of female mice or male rats under isofluran (Abbott) anaesthesia. Blood was pooled from two or ten individual rodents for each experiment in the case of rat and mouse experiments, respectively. In all cases, blood was collected into 3.8% sodium citrate tubes (Greiner Bio-one). Platelet-rich plasma (PRP) was obtained by centrifugation at 100×g for 15 min at 25° C. for humans, at 150×g for rats, or at 80×g for 10 min for mice. Platelet-poor plasma was obtained by centrifugation of the remaining blood at 2,400×g for 10 min at 25° C. After counting in an Autocounter (Model 920 EO, Swelab) platelets were diluted when necessary to the desired stock concentrations (200,000-300,000 platelets/μl) using 0.9% NaCl isotonic solution (Braun).
Platelet aggregation was determined by light absorbance using a platelet aggregometer with constant magnetic stirring (Model 490, Chronolog Cop., Havertown, Pa., USA), using a volume of 500 μl per cuvette. […] IC50 values of test compounds were calculated using GraphPad Prism 3.02 for Windows (GraphPad Software, San Diego Calif. USA). […]

female C57BL/6 mice = assay: pulmonary thromboembolism induced by arachidonic acid (platelet aggregation in vivo); set-up: species or system mouse; details: 100 mg/kg orally, 30 min before arachidonic acid 30 mg/kg i.v.; survival one hour after challenge
Description: The compounds of the invention also were assayed for their effects on platelet aggregation in vivo. An in vivo test of platelet activation is the induction of pulmonary thromboembolism by arachidonic acid, a precursor of prostaglandin formation. Inhibitors of prostaglandin synthesis, e.g., a COX-1 inhibitor such as asprin, are protective in the assay. For the pulmonary thromboembolism assay, concious female C57BL/6 mice were dosed orally with the test compounds and 30 min later thromboembolism was induced by injection of arachidonic acid into a tail vein at a dose of 30 mg per kg body weight. Survival was evaluated one hour after the challenge with arachidonic acid, as mice that survive for that length of time usually recovered fully. The arachidonic acid injection was given via a lateral tail vein in a mouse that had been warmed briefly under a heat lamp (dilation of the tail veins using heat facilitates placing the injection). An insulin syringe, 0.5 mL (from Becton Dickinson) was used for dosing. The dose volume given of both the test compound and the arachidonic acid was adjusted to the weight of the mouse (the dose volume p.o. for test compounds and i.v. for arachidonic acid solution was 10 μL and 5 μL per gram body weight, respectively). The survival rate for mice treated with arachidonic acid only was 1 per 10 mice evaluated or 10%. Survival rates for mice treated with test compounds (100 mg/kg, orally) and then arachidonic acid are shown below in Table 4.

human platelets = assay: platelet aggregation in vitro, human platelets; type: cell-based; details: Serum % 50, read-out: IC50 (nM) for Test Compounds
Description: as §1
Platelet aggregation was determined by light absorbance using a platelet aggregometer with constant magnetic stirring (Model 490, Chronolog Cop., Havertown, Pa., USA), using a volume of 500 μl per cuvette. During the performance of the experiments, platelet solution was continually agitated by mild horizontal shaking. Collagen (Sigma) and PGE2 or sulprostone (Cayman Chemicals) were used as accelerants of platelet aggregation. Compounds used for this assay were dissolved and stored in a 100% DMSO solution. After dilution, the final DMSO concentration in the assay was lower than 0.1% v/v. […] Acceleration agents and EP3 test compounds were diluted in isotonic solution at the desired concentration. Sigmoidal non-lineal regression was used to calculate the concentration of test compound required to inhibit platelet aggregation by 50% (IC50). IC50 values of test compounds were calculated using GraphPad Prism 3.02 for Windows (GraphPad Software, San Diego Calif. USA). […]

Row | SMILES | IC50 (prostanoid EP3 receptors) [µM] | further results
1 | Cc1cn(Cc2ccc(Cl)cc2Cl)c2c(C=CC(=O)NS(=O)(=O)c3cc(Cl)c(Cl)s3)cc(F)cc12 [Compound P067] | < 1 | IC50 (rat platelets; agonist PGE2 (940 nM) and collagen (2.0 ug.mL)): 304 nM; IC50 (rat platelets; agonist Sulprostone (100 nM) and collagen (2.0 ug.mL)): 87.8 nM; No. mice surviving/Total no. of mice evalauted (female C57BL/6 mice): 15/22; Survival rate (female C57BL/6 mice): 68%; IC50 (human platelets; Homo sapiens, agonist PGE2 (940 nM) and collagen (0.125 ug.mL)): 5.15 nM; IC50 (human platelets; Homo sapiens, agonist Sulprostone (100 nM) and collagen (0.125 ug.mL)): 9.21 nM
2 | Cc1cn(Cc2ccc3ccccc3c2)c2c(C=CC(=O)NS(=O)(=O)c3cc(Cl)c(Cl)s3)cc(F)cc12 [Compound P068] | – | No. mice surviving/Total no. of mice evalauted (female C57BL/6 mice): 4/14; Survival rate (female C57BL/6 mice): 28%
3 | O=C(COc1cccc2[nH]cc(S(=O)(=O)c3ccc4ccccc4c3)c12)NS(=O)(=O)c1cc(Cl)c(Cl)s1 [Compound P150] | – | No. mice surviving/Total no. of mice evalauted (female C57BL/6 mice): 4/8; Survival rate (female C57BL/6 mice): 50%
4 | CC12CCCC(C=CC(=O)NS(=O)(=O)c3cc(Cl)c(Cl)s3)=C1N(Cc1ccc3ccccc3c1)C(=O)C2 (centres unmarked) [Compound P253] | < 1 | IC50 (human platelets; agonist Sulprostone (100 nM) and collagen (0.125 ug.mL)): 15.9 nM
5 | Cc1noc(C)c1Cn1cc(C)c2cc(F)cc(C=CC(=O)NS(=O)(=O)c3cc(F)c(F)cc3F)c21 [Compound P370] | < 1 | –
6 | Cn1cc(C=CC(=O)NS(=O)(=O)c2c(F)c(F)c(F)c(F)c2F)c2c(Oc3ccc4ccccc4c3)cccc21 [Compound P373] | < 1 | –
7 | COc1cc(Cn2cc(C)c3cc(F)cc(C=CC(=O)NS(=O)(=O)c4ccc(F)c(F)c4)c32)cc(OC)c1 [Compound P374] | < 1 | –
8 | COc1cc(Cn2cc(C)c3cc(F)cc(C=CC(=O)NS(=O)(=O)c4cc(F)c(F)cc4F)c32)cc(OC)c1 [Compound P375] | < 1 | –
9 | Cn1cc(C=CC(=O)NS(=O)(=O)c2ccc(F)c(F)c2)c2c(Oc3ccc4ncccc4c3)cccc21 [Compound P376] | < 1 | –
10 | Cn1cc(C=CC(=O)NS(=O)(=O)c2cc(F)c(F)cc2F)c2c(Oc3ccc4ncccc4c3)cccc21 [Compound P377] | < 1 | –
11 | Cc1cn(CCC(=O)NS(=O)(=O)c2cc(F)c(F)cc2F)c2c(Oc3ccc4ccccc4c3)cc(F)cc12 [Compound P378, 2,4,5-Trifluoro-N-{3-[5-fluoro-3-methyl-7-(naphthalen-2-yloxy)-indol-1-yl]-propionyl}-benzenesulfonamide] | < 1 | –
12 | Cc1cn(CCC(=O)NS(=O)(=O)c2ccc(F)c(F)c2)c2c(Oc3ccc4ccccc4c3)cc(F)cc12 [Compound P379] | < 1 | –
13 | Cc1cn(CCC(=O)NS(=O)(=O)c2cccc(Cl)c2)c2c(Oc3ccc4ccccc4c3)cc(F)cc12 [Compound P381] | < 1 | –
14 | Cc1cn(CCC(=O)NS(=O)(=O)c2cc(F)c(F)cc2F)c2c(Oc3ccc(Cl)cc3Cl)cc(F)cc12 [Compound P382] | < 1 | –
15 | Cc1cn(CCC(=O)NS(=O)(=O)c2ccc(F)c(F)c2)c2c(Oc3ccc(Cl)cc3Cl)cc(F)cc12 [Compound P383] | < 1 | –
16 | Cc1cn(CCC(=O)NS(=O)(=O)c2cc(Cl)c(Cl)s2)c2c(Oc3ccc(Cl)cc3Cl)cc(F)cc12 [Compound P384] | < 1 | –
17 | Cc1cn(CCC(=O)NS(=O)(=O)c2cccc(Cl)c2)c2c(Oc3ccc(Cl)cc3Cl)cc(F)cc12 [Compound P385] | < 1 | –
18 | Cc1cn(CCC(=O)NS(=O)(=O)c2cc(F)c(F)cc2F)c2c(Oc3ccc(Cl)c(Cl)c3)cc(F)cc12 [Compound P386] | < 1 | –
19 | Cc1cn(CCC(=O)NS(=O)(=O)c2ccc(F)c(F)c2)c2c(Oc3ccc(Cl)c(Cl)c3)cc(F)cc12 [Compound P387] | < 1 | –
20 | Cc1cn(CCC(=O)NS(=O)(=O)c2cc(Cl)c(Cl)s2)c2c(Oc3ccc(Cl)c(Cl)c3)cc(F)cc12 [Compound P388] | < 1 | –
